Results as given in ChEMBL document CHEMBL1140742, “Discovery of novel chemotypes to a G-protein-coupled receptor through ligand-steered homology modeling and structure-based virtual screening” (J Med Chem, 2008).

Biological target: T1, Melanin-concentrating hormone receptor 1 (Homo sapiens, UniProt Q99705)
Assay: Displacement of [125I]MCH from human MCHR1 expressed in CHO cell membranes

T1 sequence (Q99705 whole entry): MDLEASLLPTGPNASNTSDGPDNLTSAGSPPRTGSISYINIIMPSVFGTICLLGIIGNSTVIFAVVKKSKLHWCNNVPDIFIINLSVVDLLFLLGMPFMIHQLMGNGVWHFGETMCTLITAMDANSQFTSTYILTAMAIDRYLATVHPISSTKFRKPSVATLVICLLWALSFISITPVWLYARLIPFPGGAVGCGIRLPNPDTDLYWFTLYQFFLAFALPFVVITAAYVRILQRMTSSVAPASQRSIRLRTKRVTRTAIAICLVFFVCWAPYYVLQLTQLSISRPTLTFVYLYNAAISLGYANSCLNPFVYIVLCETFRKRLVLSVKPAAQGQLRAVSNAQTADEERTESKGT

| Ki [µM] | SMILES |
| --- | --- |
| 8.1 | COc1ccc(/C=C2/SC(=S)N(CCCC(=O)OCCN(C)C)C2=O)cc1 |
| 11.3 | CCN(CC)Cc1cc(N=C2NS(=O)(=O)c3ccccc32)ccc1OC(=O)c1ccc(OC)cc1 |
| 11.9 | CCN(CC)CCCn1c(-c2ccc(Br)cc2)cn2c3ccccc3nc12 |
| 7.5 | Cc1ccccc1SCN(CCc1ccccc1)CSc1ccccc1C |
| 20.9 | CC(C)N(CCCNC(=O)c1cc2sccc2n1C)Cc1ccccc1 |
| 7.8 | Cc1ccccc1Nc1nc(N)nc(CN(C)Cc2cccc(Cl)c2)n1 |
| 1.7 | CCCCCCN(CS(=O)(=O)c1ccc(C)cc1)CS(=O)(=O)c1ccc(C)cc1 |
| 7.5 | Cc1ccc(S(=O)(=O)CN(Cc2ccccc2)CS(=O)(=O)c2ccc(C)cc2)cc1 |

Biological target: T1, Melanin-concentrating hormone receptor 1
Assay: Displacement of [125I]MCH from human MCHR1 expressed in CHO cell membranes at 5 ug/ml

| SMILES | inhibition [%] |
| --- | --- |
| COc1ccccc1Nc1nc(N)nc(CN(C)C2CCCCC2)n1 | 0 |
| COc1ccc(-c2cn3c4ccccc4nc3n2CCCN2CCOCC2)cc1 | 0 |
| CCOc1ccccc1Nc1nc(N)nc(CN(C)C2CCCCC2)n1 | 16 |
| CCCn1c(-c2ccc(-c3ccccc3)cc2)c(C(C)=O)n2c3ccccc3nc12 | 18 |
| COc1cc(C(=O)Oc2ccc(N(Cc3cccs3)C3=NS(=O)(=O)c4ccccc43)cc2)cc(OC)c1OC | 10 |
| COc1ccccc1CN(C(=O)c1cc2sccc2n1C)C1CC(C)(C)NC(C)(C)C1 | 3 |
| CCC(=O)Oc1ccc(NC2=NS(=O)(=O)c3ccccc32)cc1 | 31 |
| O=C(Nc1ccccc1)c1c(-c2ccccc2)n(Cc2ccccc2)c2nc3ccccc3n12 | 15 |
| Cc1ccc(S(=O)(=O)CN(CS(=O)(=O)c2ccc(C)cc2)c2ccc(Br)cc2F)cc1 | 10 |
| O=C(c1cc2sccc2n1Cc1ccc(F)cc1)N(CCCN1CCOCC1)Cc1cccnc1 | 44 |
| CCOc1ccc(Nc2nc(N)nc(CN(C)C3CCCCC3)n2)cc1 | 3 |
| COc1ccc(Nc2nc(N)nc(CN(C)C3CCCCC3)n2)cc1 | 0 |
| CCOc1ccc(NC2=NS(=O)(=O)c3cc([N+](=O)[O-])ccc32)cc1 | 4 |
| COc1cc(CN(CCCn2ccnc2)C(=O)c2cc3sccc3n2C)cc(OC)c1 | 0 |
